Data published in patent EP0804408B1, “NOVEL 4-SUBSTITUTED 2,6-DI-TERT-BUTYLPHENOL COMPOUNDS, PHARMACEUTICAL COMPOSITIONS CONTAINING SAME AND PREPARATION METHOD THEREFOR” (priority 1994, dated 1996).

Tested on: macrophages de lignée RAW264.7
Test: Toxicity test on RAW264.7 macrophages (crystal violet and neutral red staining)
Type: cell-based, murins
Conditions: for DO/ml moyenne sur 4 puis ± écart type / Pourcentage de survie par rapport au témoin cellules en milieu seul: 24 h; for hautement toxique jusqu'à: final conclusion
Experimental: La toxicité de AVF1 pour les macrophages de lignée RAW264.7 (ATCC TIB 71) utilisés pour le test iNOS a été déterminée dans l'expérience préliminaire suivante :
Les macrophages de lignée RAW264.7 ont été distribués dans des séries de 4 puits dans une plaque à 96 puits à raison de 1,5 x 10^5/100 µl/ml dans du milieu de culture (D-NEM sans rouge de phénol, Gibco) additionné de 0,2 % d'antibiotique, 1% de L-glutamine et 5% de sérum de veau foetal décomplémenté (produits pour celuture cellulaire Eurobio).
Après 18 heures, différentes concentrations de raison […] de AVF1 ont été ajoutées sous 100 µl de façon à obtenir les concentrations finales de 10^0 à 10^-10%. Après 24 heures de culture supplémentaire, les cellules ont été observées au microscope et colorées selon deux techniques différentes permettant d'obtenir un pourcentage respectivement de cellules adhérentes au plastique (coloration au violet cristal) et de cellules vivantes (coloration au rouge neutre) : • Dans la première technique, les cellules sont lavées avec du PBS + Ca^2+ + Mg^2+ (Gibco) afin d'éliminer les éventuelles cellules mortes flottantes et de maintenir les cellules vivantes sur le plastique. Le colorant (1% de violet cristal, R.A.L. 20% de méthanol, Merck) est ajouté sous 50 µl/puits et laissé 20 minutes à température ambiante. Après plusieurs lavages doux en PBS + Ca^2+ + Mg^2+ , les plaques sont séchées à 37°C et 100 µl de SDS (Sigma, 1% en eau distillée) sont ajoutés par puits. La plaque est laissée 1 heure à température ambiante à l'abri de la lumière pour permettre la dissolution complète du lysat cellulaire. La plaque est ensuite lue au lecteur ELISA (Labsystems) à 550 nm après 15 secondes d'agitation. Le blanc de densité optique (OD) est fait sur une rangée de 8 cupules n'ayant reçu que 50 µl de la solution de violet cristal puis ayant été traitées comme les autres. • Dans la seconde technique, les cellules reçoivent 50 µl de rouge neutre à 0,3% (R.A.L.) qui est pinocyté par les macrophages vivants. Après 2 heures d'incubation, le milieu est enlevé et les cellules sont lavées doucement avec 200 µl de PBS + Ca^2+ + Mg^2+. Les cellules restantes sont ensuite lysées avec 100 µl de SDS et la plaque est mise à 4°C pendant 1 heure pour permettre un relargage complet du colorant. La plaque est ensuite lue au lecteur ELISA à 570 nm avec un filtre de référence de 630 nm après 15 secondes d'agitation. Le blanc de DO est fait sur une colonne de 8 cupules n'ayant reçu que le colorant puis ayant été traitées comme les autres.
Pour la réalisation de cet essai, AVF1 a été préparé de la façon suivante : 1 g a été dissout dans 5 ml de D-MEM sans rouge de phénol. Cette solution à 20% a été stérilisée sur 0,22 µm (Minisart, Sartorius), le pH contrôlé (7,5), aliquotée sous 1 ml et conservée à +4°C. Au moment de l'emploi, cette solution a été diluée afin d'obtenir les concentrations finales désirées.

[1] = ROUGE NEUTRE, second experiment, AVF1 1 10^-7 %
[2] = ROUGE NEUTRE, second experiment, AVF1 1 10^-8 %
[3] = ROUGE NEUTRE, second experiment, AVF1 1 10^-9 %
[4] = ROUGE NEUTRE, second experiment, AVF1 1 10^-10 %
[5] = ROUGE NEUTRE, second experiment, AVF1 5 10^-7 %
[6] = ROUGE NEUTRE, second experiment, AVF1 5 10^-8 %
[7] = ROUGE NEUTRE, second experiment, AVF1 5 10^-9 %
[8] = ROUGE NEUTRE, second experiment, AVF1 5 10^-10 %
[9] = ROUGE NEUTRE, second experiment, AVF1 10^-6 %
[10] = VIOLET CRISTAL, second experiment, AVF1 1 10^-7 %
[11] = VIOLET CRISTAL, second experiment, AVF1 1 10^-8 %
[12] = VIOLET CRISTAL, second experiment, AVF1 1 10^-9 %
[13] = VIOLET CRISTAL, second experiment, AVF1 1 10^-10 %
[14] = VIOLET CRISTAL, second experiment, AVF1 5 10^-7 %
[15] = VIOLET CRISTAL, second experiment, AVF1 5 10^-8 %
[16] = VIOLET CRISTAL, second experiment, AVF1 5 10^-9 %
[17] = VIOLET CRISTAL, second experiment, AVF1 5 10^-10 %
[18] = VIOLET CRISTAL, second experiment, AVF1 10^-6 %

CC(C)(C)c1cc(C(=O)OCCOCCOCCOCCOCCOCCOCCOCCO)cc(C(C)(C)C)c1O [AVF1, 3,5-di-t-butyl-4-hydroxybenzoate d'octaoxyéthylèneglycol]
n'est plus toxique à partir de (RAW 264.7 macrophages after 24 heures de culture, non-toxic from this concentration downwards): ≤ 10^-6% | DO/ml moyenne sur 4 puis ± écart type (ROUGE NEUTRE, AVF1 0,5 %): 0 DO/ml | Pourcentage de survie par rapport au témoin cellules en milieu seul (ROUGE NEUTRE, AVF1 0,5 %): 0% | DO/ml moyenne sur 4 puis ± écart type (ROUGE NEUTRE, AVF1 1 10^-2 %): 0 DO/ml | Pourcentage de survie par rapport au témoin cellules en milieu seul (ROUGE NEUTRE, AVF1 1 10^-2 %): 6% | DO/ml moyenne sur 4 puis ± écart type (ROUGE NEUTRE, AVF1 1 10^-3 %): 0 DO/ml | Pourcentage de survie par rapport au témoin cellules en milieu seul (ROUGE NEUTRE, AVF1 1 10^-3 %): 0% | DO/ml moyenne sur 4 puis ± écart type (ROUGE NEUTRE, AVF1 1 10^-4 %): 0,010 ± 0,002 DO/ml | Pourcentage de survie par rapport au témoin cellules en milieu seul (ROUGE NEUTRE, AVF1 1 10^-4 %): 1% | DO/ml moyenne sur 4 puis ± écart type (ROUGE NEUTRE, AVF1 1 10^-5 %): 0,060 ± 0,034 DO/ml | Pourcentage de survie par rapport au témoin cellules en milieu seul (ROUGE NEUTRE, AVF1 1 10^-5 %): 41% | DO/ml moyenne sur 4 puis ± écart type (ROUGE NEUTRE, AVF1 1 %): 0 DO/ml | Pourcentage de survie par rapport au témoin cellules en milieu seul (ROUGE NEUTRE, AVF1 1 %): 0% | DO/ml moyenne sur 4 puis ± écart type (ROUGE NEUTRE, AVF1 5 10^-3 %): 0 DO/ml | Pourcentage de survie par rapport au témoin cellules en milieu seul (ROUGE NEUTRE, AVF1 5 10^-3 %): 3% | DO/ml moyenne sur 4 puis ± écart type (ROUGE NEUTRE, AVF1 5 10^-4 %): 0 DO/ml | Pourcentage de survie par rapport au témoin cellules en milieu seul (ROUGE NEUTRE, AVF1 5 10^-4 %): 0% | DO/ml moyenne sur 4 puis ± écart type (ROUGE NEUTRE, AVF1 5 10^-5 %): 0,023 ± 0,003 DO/ml | Pourcentage de survie par rapport au témoin cellules en milieu seul (ROUGE NEUTRE, AVF1 5 10^-5 %): 16% | DO/ml moyenne sur 4 puis ± écart type (ROUGE NEUTRE, AVF1 5 10^-6 %): 0,476 ± 0,034 DO/ml | Pourcentage de survie par rapport au témoin cellules en milieu seul (ROUGE NEUTRE, AVF1 5 10^-6 %): 70% | DO/ml moyenne sur 4 puis ± écart type [1]: 0,605 ± 0,024 DO/ml | Pourcentage de survie par rapport au témoin cellules en milieu seul [1]: 95% | DO/ml moyenne sur 4 puis ± écart type [2]: 0,601 ± 0,121 DO/ml | Pourcentage de survie par rapport au témoin cellules en milieu seul [2]: 95% | DO/ml moyenne sur 4 puis ± écart type [3]: 0,594 ± 0,083 DO/ml | Pourcentage de survie par rapport au témoin cellules en milieu seul [3]: 93% | DO/ml moyenne sur 4 puis ± écart type [4]: 0,609 ± 0,053 DO/ml | Pourcentage de survie par rapport au témoin cellules en milieu seul [4]: 96% | DO/ml moyenne sur 4 puis ± écart type [5]: 0,652 ± 0,089 DO/ml | Pourcentage de survie par rapport au témoin cellules en milieu seul [5]: 100% | DO/ml moyenne sur 4 puis ± écart type [6]: 0,575 ± 0,040 DO/ml | Pourcentage de survie par rapport au témoin cellules en milieu seul [6]: 90% | DO/ml moyenne sur 4 puis ± écart type [7]: 0,545 ± 0,015 DO/ml | Pourcentage de survie par rapport au témoin cellules en milieu seul [7]: 86% | DO/ml moyenne sur 4 puis ± écart type [8]: 0,573 ± 0,030 DO/ml | Pourcentage de survie par rapport au témoin cellules en milieu seul [8]: 90% | DO/ml moyenne sur 4 puis ± écart type [9]: 0,602 ± 0,059 DO/ml | Pourcentage de survie par rapport au témoin cellules en milieu seul [9]: 95% | DO/ml moyenne sur 4 puis ± écart type (VIOLET CRISTAL, AVF1 0,5 %): 0,118 ± 0,027 DO/ml | Pourcentage de survie par rapport au témoin cellules en milieu seul (VIOLET CRISTAL, AVF1 0,5 %): 6% | DO/ml moyenne sur 4 puis ± écart type (VIOLET CRISTAL, AVF1 1 10^-2 %): 0,118 ± 0,027 DO/ml | Pourcentage de survie par rapport au témoin cellules en milieu seul (VIOLET CRISTAL, AVF1 1 10^-2 %): 6% | DO/ml moyenne sur 4 puis ± écart type (VIOLET CRISTAL, AVF1 1 10^-3 %): 0,117 ± 0,027 DO/ml | Pourcentage de survie par rapport au témoin cellules en milieu seul (VIOLET CRISTAL, AVF1 1 10^-3 %): 8% | DO/ml moyenne sur 4 puis ± écart type (VIOLET CRISTAL, AVF1 1 10^-4 %): 0,180 ± 0,016 DO/ml | Pourcentage de survie par rapport au témoin cellules en milieu seul (VIOLET CRISTAL, AVF1 1 10^-4 %): 9% | DO/ml moyenne sur 4 puis ± écart type (VIOLET CRISTAL, AVF1 1 10^-5 %): 0,259 ± 0,033 DO/ml | Pourcentage de survie par rapport au témoin cellules en milieu seul (VIOLET CRISTAL, AVF1 1 10^-5 %): 12% | DO/ml moyenne sur 4 puis ± écart type (VIOLET CRISTAL, AVF1 1 %): 0,172 ± 0,030 DO/ml | Pourcentage de survie par rapport au témoin cellules en milieu seul (VIOLET CRISTAL, AVF1 1 %): 8% | DO/ml moyenne sur 4 puis ± écart type (VIOLET CRISTAL, AVF1 5 10^-3 %): 0,061 ± 0,017 DO/ml | Pourcentage de survie par rapport au témoin cellules en milieu seul (VIOLET CRISTAL, AVF1 5 10^-3 %): 3% | DO/ml moyenne sur 4 puis ± écart type (VIOLET CRISTAL, AVF1 5 10^-4 %): 0,156 ± 0,010 DO/ml | Pourcentage de survie par rapport au témoin cellules en milieu seul (VIOLET CRISTAL, AVF1 5 10^-4 %): 7% | DO/ml moyenne sur 4 puis ± écart type (VIOLET CRISTAL, AVF1 5 10^-5 %): 0,216 ± 0,034 DO/ml | Pourcentage de survie par rapport au témoin cellules en milieu seul (VIOLET CRISTAL, AVF1 5 10^-5 %): 10% | DO/ml moyenne sur 4 puis ± écart type (VIOLET CRISTAL, AVF1 5 10^-6 %): 1,129 ± 0,069 DO/ml | Pourcentage de survie par rapport au témoin cellules en milieu seul (VIOLET CRISTAL, AVF1 5 10^-6 %): 54% | DO/ml moyenne sur 4 puis ± écart type [10]: 0,960 ± 0,070 DO/ml | Pourcentage de survie par rapport au témoin cellules en milieu seul [10]: 86% | DO/ml moyenne sur 4 puis ± écart type [11]: 1,128 ± 0,043 DO/ml | Pourcentage de survie par rapport au témoin cellules en milieu seul [11]: 100% | DO/ml moyenne sur 4 puis ± écart type [12]: 1,010 ± 0,059 DO/ml | Pourcentage de survie par rapport au témoin cellules en milieu seul [12]: 91% | DO/ml moyenne sur 4 puis ± écart type [13]: 0,934 ± 0,050 DO/ml | Pourcentage de survie par rapport au témoin cellules en milieu seul [13]: 84% | DO/ml moyenne sur 4 puis ± écart type [14]: 1,051 ± 0,041 DO/ml | Pourcentage de survie par rapport au témoin cellules en milieu seul [14]: 94% | DO/ml moyenne sur 4 puis ± écart type [15]: 1,089 ± 0,051 DO/ml | Pourcentage de survie par rapport au témoin cellules en milieu seul [15]: 98% | DO/ml moyenne sur 4 puis ± écart type [16]: 0,970 ± 0,062 DO/ml | Pourcentage de survie par rapport au témoin cellules en milieu seul [16]: 87% | DO/ml moyenne sur 4 puis ± écart type [17]: 1,000 ± 0,089 DO/ml | Pourcentage de survie par rapport au témoin cellules en milieu seul [17]: 90% | DO/ml moyenne sur 4 puis ± écart type [18]: 0,991 ± 0,078 DO/ml | Pourcentage de survie par rapport au témoin cellules en milieu seul [18]: 89% | toxique jusqu'à la concentration de (conclusion of first toxicity experiment (Tableaux III, IV), toxic down to this concentration): ≥ 5 x 10^-5% | hautement toxique jusqu'à (conversion of 10^-5 %): ~100 nM | hautement toxique jusqu'à (toxic down to this concentration): ≥ 10^-5%
